Test results reported in US4372948A, “Derivative of saccharide and physiologically active agent containing the same” (Kureha Kagaku Kogyo Kabushiki Kaisha, priority 1980, dated 1983).

What was measured:
[1] = tested on: pseudo-escaping reaction to tail pressure; test: Analgetic activity against mechanical stimulation of pressure; type: in vivo, mouse (ICR female); settings: oral, 1000 mg/kg
carrageenin edema = test: Anti-Carrageenin edema activity; type: in vivo, rat; settings: Rattus norvegicus, po, 1000 mg/kg once, read-out: I.R. against carrageenin edema
Summary of the method: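 Rats (10 per group) given compound orally once at 1000 mg/kg in distilled water, then 0.1 ml 1% carrageenin injected into right hind foot pad. Foot pad thickness measured at intervals; inhibition rate (%) = (1−T/C)×100 versus carrageenin-only animals.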

exudation = test: Anti-exudation activity (air pouch, croton oil); type: in vivo, rat; settings: Rattus norvegicus, po, 144 h, 5 days, read-out: I.R. against exudation
Summary of the method: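 Rats, 6 per group, given subcutaneous dorsal air pouch injected with 0.5 ml sesame oil containing 1% croton oil. Compounds dosed orally in distilled water at 1000 mg/kg/day for five days; pouch exudate volume measured on day 6 and expressed as percent inhibition of exudation.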

level of blood sugar = test: Anti-hyperglycemia activity (reduction of blood sugar level); type: in vivo, rat (Wistar, streptozotocin); settings: oral, 300 mg/kg
Summary of the method: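 Streptozotocin-diabetic Wistar rats (60 mg/kg i.p., relapsed hyperglycemia after insulin) given compounds orally at 300 mg/kg in distilled water. Blood sugar measured in samples taken 3 and 6 h post-dose.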

blood pressure = test: Anti-hypertension activity (reduction of blood pressure); type: in vivo, rat (spontaneous hypertension); settings: oral, 300 mg/kg
Summary of the method: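 Spontaneously hypertensive rats dosed orally at 300 mg/kg in distilled water. Blood pressure measured at 3 and 6 h. Activity taken as change from the value just before dosing.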

cotton pellet granuloma = test: Anti-granuloma activity (cotton pellet); type: in vivo, rat; settings: Rattus norvegicus, po, 192 h, 7 days, read-out: I.R. against cotton pellet edema
Summary of the method: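 Rats (6/group) implanted dorsally with two 30±1 mg cotton pellets; compounds given orally in distilled water at 1000 mg/kg/day once daily for 7 days. Granuloma excised on day 8 and dry weight measured; value is % inhibition of granuloma proliferation.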

in vivo = settings: mouse, in vivo, po, mice, 7 days observation, read-out: LD50, acute oral toxicity
total cholesterol = test: Anti-hyperlipemia activity, total cholesterol in blood; type: in vivo, rabbit (Japanese white male); settings: oral, 300 mg/kg once; for Reduction of cholesterol level after 3 hrs.: negative = raising
Summary of the method: (§1)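 Male Japanese white rabbits fed 1% cholesterol diet for 3 months received compound once orally at 300 mg/kg in water. Ear-vein blood: cholesterol by enzymatic method, beta-lipoprotein by colorimetry; values are change from predose at 3 or 6 h.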

Sarcoma-180 = test: Anti-tumour activity against Sarcoma-180; type: in vivo, mouse (ICR-JCL); settings: Mus musculus, Sarcoma-180, po, 600 h, 10 times every other day, tumour weight on 25th day, read-out: Antitumour activity, inhibiting rate (I.R.)
Summary of the method: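 ICR-JCL mice were given 1×10^6 Sarcoma-180 cells axillary; from 24 hours, compounds in saline were dosed orally at 500 mg/kg/time, 10 times every other day. Tumour nodes were weighed on day 25; inhibition rate = (1-T/C)×100(%) versus untreated tumour-bearing mice.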

beta-lipoprotein = test: Anti-hyperlipemia activity, beta-lipoprotein in blood; type: in vivo, rabbit (Japanese white male); settings: oral, 300 mg/kg once
Summary of the method: as §1

[2] = tested on: pyrexia (Saccharomyces cerevisiae); test: Anti-pyrexia activity (yeast-induced); type: in vivo; settings: Rattus norvegicus, oral, read-out: Rate of inhibiting pyrexia (I.R.)
Summary of the method: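 Rats (n=6/group) received subcutaneous 20% Saccharomyces cerevisiae suspension, fasted 10 h, then dosed orally with 1000 mg/kg compound in distilled water. Rectal temperature was tracked at set intervals and the lowest value taken; inhibition rate computed against non-yeast and yeast-only control temperatures.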

acetic acid writhing = test: Analgetic activity against chemical stimulation of acetic acid (writhing); type: in vivo, mouse (ICR female); settings: Mus musculus, po, 30 min before 0.6% acetic acid, read-out: I.R. of writhing
Excerpt: Rate of inhibition (I.R.) (%)=(1-T/C)×100
T represents the average number of writhing of the group of mice administered with the present compound and injected with acetic acid, and C represents the average number of writhing of the group of mice only injected with acetic acid (control).

| Compound | Pseudo-escapting reaction pressure [1] [mmHg] | Pseudo-escapting reaction time [1] [s] | inhibition in vivo at 1000 mg/kg (carrageenin edema) [%] | inhibition in vivo at 1000 mg/kg/day (exudation) [%] | Reduced level of blood sugar after 3 hrs. (level of blood sugar) [mg/dL] | Reduced level of blood sugar after 6 hrs. (level of blood sugar) [mg/dL] | Reduced level of blood pressure after 3 hrs. (blood pressure) [mm Hg] | Reduced level of blood pressure after 6 hrs. (blood pressure) [mm Hg] | inhibition in vivo at 1000 mg/kg/day (cotton pellet granuloma) [%] | LD50 at 168 h (in vivo) [mg/kg] | Reduction of cholesterol level after 3 hrs. (total cholesterol) [mg/dL] | Reduction of cholesterol level after 6 hrs. (total cholesterol) [mg/dL] | inhibition in vivo at 500 mg/kg (Sarcoma-180) [%] | Reduction of beta-lipoprotein level after 3 hrs. (beta-lipoprotein) [mg/dL] | Reduction of beta-lipoprotein level after 6 hrs. (beta-lipoprotein) [mg/dL] | inhibition in vivo at 1000 mg/kg [2] [%] | inhibition in vivo at 1000 mg/kg (acetic acid writhing) [%] |
| --- | --- | --- | --- | --- | --- | --- | --- | --- | --- | --- | --- | --- | --- | --- | --- | --- | --- |
| O=C(OCc1ccccc1)c1ccc(NC2(CO)OC[C@@H](O)[C@@H](O)[C@@H]2O)cc1 (stereo partly drawn) [Compound 15, benzyl p-aminobenzoate-N-D-fructoside] | 78 | 37 | 30.8 | 7.5 | 72 | 85 | 18 | 20 | 9 | 11000 | -1 | 45 | 43 | 150 | 154 | 26 | 19 |
| O=C(OC1CCCCC1)c1ccccc1NC1C[C@H](O)[C@H](O)CO1 (stereo partly drawn) [Compound 16, cyclohexyl o-aminobenzoate-N-D-deoxyriboside] | 87 | 39 | 18.6 | 5.7 | 125 | 140 | 20 | 20 | 6.5 | 8800 | 0 | 33 | 37 | 104 | 110 | 48 | 26 |
| O=C(OC1CCCCC1)c1cccc(NC2O[C@H](CO)[C@@H](O)[C@H](O)[C@@H]2O)c1 (stereo partly drawn) [Compound 17, cyclohexyl m-aminobenzoate-N-D-mannoside] | 92 | 42 | 4.3 | 14.6 | 140 | 145 | 23 | 28 | 19.7 | > 15000 | -2 | 40 | 49 | 124 | 136 | 30 | 47 |
| O=C(OC1CCCCC1)c1ccc(NC2OC[C@@H](O)[C@H](O)[C@H]2O)cc1 (stereo partly drawn) [Compound 18, cyclohexyl p-aminobenzoate-N-D-xyloside] | 94 | 39 | 19.7 | 25 | 121 | 165 | 22 | 25 | 12.2 | > 15000 | 2 | 62 | 62 | 148 | 154 | 62 | 33 |
| O=C(OC1CCCCC1)c1ccc(NC2O[C@H](CO)[C@@H](O[C@@H]3O[C@H](CO)[C@@H](O)[C@H](O)[C@H]3O)[C@H](O)[C@H]2O)cc1 (stereo partly shown) [Compound 19, cyclohexyl p-aminobenzoate-N-cellobioside] | 82 | 37 | 5.5 | 24.6 | 101 | 113 | 20 | 21 | 5.5 | 14600 | 3 | 41 | 51 | 135 | 148 | 37 | 24 |
| O=C(OC1CCCCC1)c1ccc(NC2O[C@H](CO)[C@@H](O[C@H]3O[C@H](CO)[C@@H](O[C@H]4O[C@H](CO)[C@@H](O)[C@H](O)[C@H]4O)[C@H](O)[C@H]3O)[C@H](O)[C@H]2O)cc1 (stereo partly shown) [Compound 20, cyclohexyl p-aminobenzoate-N-maltotrioside] | 75 | 35 | 8.6 | 6.2 | 113 | 120 | 22 | 24 | 21.7 | 12500 | -2 | 50 | 37 | 125 | 128 | 23 | 17 |
| O=C(OCC1CCCCC1)c1ccccc1NC1O[C@H](CO)[C@@H](O[C@@H]2O[C@H](CO)[C@H](O)[C@H](O)[C@H]2O)[C@H](O)[C@H]1O (stereo partly shown) [Compound 21, hexahydrobenzyl o-aminobenzoate-N-lactoside] | 84 | 40 | 19.4 | 20.7 | 95 | 102 | 16 | 17 | 7.2 | > 15000 | 4 | 43 | 44 | 96 | 109 | 28 | 28 |
| C[C@@H]1OC(Nc2cccc(C(=O)OCC3CCCCC3)c2)[C@@H](O)[C@H](O)[C@@H]1O (stereo partly drawn) [Compound 22, hexahydrobenzyl m-aminobenzoate-N-L-fucoside] | 75 | 37 | 24.6 | 7.7 | 133 | 150 | 15 | 21 | 15.7 | 10100 | 6 | 38 | 35 | 125 | 133 | 29 | 19 |
